Measurements reported in ChEMBL document CHEMBL1201862, “PubChem BioAssay data set” (2004).
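Compound exposure: 48 hours, 5 concentrations, 96-well plates. GI50: concentration for 50% inhibition of growth.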 Active and inactive are the calls of the source. Cut-off read from the data, not from the text of the source: active = GI50 up to about 1.1 µM and inactive = higher.

What was measured:
Assay in all cases: DTP human tumour cell line panel, 48 h
786-0 = test system: 786-0
A498 = test system: A498
A549 = test system: A549
ACHN = test system: ACHN
BT-549 = test system: BT-549
CAKI-1 = test system: CAKI-1
CCRF-CEM = test system: CCRF-CEM
COLO 205 = test system: COLO 205
DU-145 = test system: DU-145
EKVX = test system: EKVX
HCC 2998 = test system: HCC 2998
HCT-116 = test system: HCT-116
HCT-15 = test system: HCT-15
HL-60 = test system: HL-60
HOP-62 = test system: HOP-62
HOP-92 = test system: HOP-92
HT-29 = test system: HT-29
Hs-578T = test system: Hs-578T
IGROV-1 = test system: IGROV-1
K562 = test system: K562
KM12 = test system: KM12
LOX IMVI = test system: LOX IMVI
M14 = test system: M14
MCF7 = test system: MCF7
MDA-MB-231 = test system: MDA-MB-231
MDA-MB-435 = test system: MDA-MB-435
MDA-N = test system: MDA-N
MOLT-4 = test system: MOLT-4
Malme-3M = test system: Malme-3M
NCI-H226 = test system: NCI-H226
NCI-H23 = test system: NCI-H23
NCI-H460 = test system: NCI-H460
NCI-H522 = test system: NCI-H522
NCI/ADR-RES = test system: NCI/ADR-RES
OVCAR-3 = test system: OVCAR-3
OVCAR-4 = test system: OVCAR-4
OVCAR-5 = test system: OVCAR-5
OVCAR-8 = test system: OVCAR-8
PC-3 = test system: PC-3
RPMI-8226 = test system: RPMI-8226
RXF 393 = test system: RXF 393
SF-268 = test system: SF-268
SF-295 = test system: SF-295
SF-539 = test system: SF-539
SK-MEL-28 = test system: SK-MEL-28
SK-MEL-2 = test system: SK-MEL-2
SK-MEL-5 = test system: SK-MEL-5
SK-OV-3 = test system: SK-OV-3
SN12C = test system: SN12C
SNB-19 = test system: SNB-19
SNB-75 = test system: SNB-75
SR = test system: SR
SW-620 = test system: SW-620
T47D = test system: T47D
TK-10 = test system: TK-10
U-251 = test system: U-251
UACC-257 = test system: UACC-257
UACC-62 = test system: UACC-62
UO-31 = test system: UO-31

Measured: GI50

CN(CCCCN1CCCC1)CCCN(C)C(=O)Cc1ccc(Cl)c(Cl)c1
27.3 µM: HCT-15
inactive: 786-0 12.9 µM | A498 15.8 µM | A549 18.7 µM | ACHN 35.7 µM | BT-549 16 µM | CAKI-1 21.1 µM | CCRF-CEM 4.74 µM | COLO 205 11.9 µM | DU-145 37.1 µM | EKVX 19.5 µM | HCC 2998 3.62 µM | HCT-116 13.2 µM | HL-60 15.3 µM | HOP-62 13.9 µM | HOP-92 4.57 µM | HT-29 4.45 µM | Hs-578T 20.6 µM | IGROV-1 20.2 µM | K562 3.05 µM | KM12 12.5 µM | LOX IMVI 11.9 µM | M14 17 µM | MCF7 17.4 µM | MDA-MB-231 10.2 µM | MDA-MB-435 2.56 µM | MDA-N 4.27 µM | MOLT-4 8.91 µM | Malme-3M 18.8 µM | NCI-H226 26.9 µM | NCI-H23 18 µM | NCI-H460 16.3 µM | NCI-H522 13.1 µM | NCI/ADR-RES > 100 µM | OVCAR-3 19.1 µM | OVCAR-4 20 µM | OVCAR-5 29.6 µM | OVCAR-8 24.4 µM | PC-3 19.1 µM | RPMI-8226 5.85 µM | RXF 393 12.7 µM | SF-268 26.7 µM | SF-295 19.3 µM | SF-539 7.38 µM | SK-MEL-28 1.79 µM | SK-MEL-2 7.94 µM | SK-MEL-5 9.98 µM | SK-OV-3 33.3 µM | SN12C 17.5 µM | SNB-19 23.7 µM | SNB-75 20.7 µM | SR 3.3 µM | SW-620 17.7 µM | T47D 21 µM | TK-10 17.7 µM | U-251 16 µM | UACC-257 3.29 µM | UACC-62 4.33 µM | UO-31 1.95 µM

BrCCC[P+](c1ccccc1)(c1ccccc1)c1ccccc1
> 100 µM: HCT-15
inactive: 786-0 13.5 µM | A498 49.5 µM | A549 25.6 µM | ACHN > 100 µM | BT-549 8.39 µM | CAKI-1 > 100 µM | CCRF-CEM > 30.5 µM | COLO 205 1.61 µM | DU-145 32.7 µM | EKVX 14.4 µM | HCC 2998 > 68.4 µM | HCT-116 1.64 µM | HL-60 1.18 µM | HOP-62 11.3 µM | HOP-92 8 µM | HT-29 15.9 µM | Hs-578T 15.5 µM | IGROV-1 5.45 µM | K562 3.16 µM | KM12 5.06 µM | M14 11.8 µM | MCF7 6.22 µM | MDA-MB-231 8.13 µM | MDA-MB-435 4.61 µM | MDA-N 8.2 µM | MOLT-4 9.66 µM | Malme-3M 16.2 µM | NCI-H226 > 78.7 µM | NCI-H23 12.3 µM | NCI-H460 15.2 µM | NCI-H522 3.34 µM | NCI/ADR-RES > 100 µM | OVCAR-3 3.44 µM | OVCAR-4 31.3 µM | OVCAR-5 56.1 µM | OVCAR-8 12.4 µM | PC-3 5.65 µM | RXF 393 2.89 µM | SF-268 16.7 µM | SF-295 40.8 µM | SF-539 8.47 µM | SK-MEL-28 19 µM | SK-MEL-2 26.7 µM | SK-MEL-5 6.27 µM | SK-OV-3 83.4 µM | SN12C 23.1 µM | SNB-19 16.6 µM | SNB-75 12 µM | SR 3.83 µM | SW-620 25.5 µM | T47D 5.85 µM | TK-10 80.9 µM | U-251 6.32 µM | UACC-257 2.71 µM | UACC-62 14 µM | UO-31 > 100 µM
active: LOX IMVI 0.736 µM | RPMI-8226 0.615 µM
